Structures can show the parent of a compound that is named as a salt. Where two headings read alike, the source gives them in different places.
Legend:
[1] = test system: SW620 human colon cancer cells; assay: SW620 Cell Viability Assay; assay type: cell-based; details: CellTiter-Glo, 4 days incubation, read-out: Cellular EC50 (μM) SW620
Method in brief: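 SW620 human colon cancer cells, some attached 24 h then serum-starved 48 h before dosing; compounds prepared in serum-supplemented medium. Cells incubated with compound 4 days at 37 °C, 5% CO2, and viability measured by CellTiter-Glo luminescence.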

Human DYRK1A = molecular target: T1, Human DYRK1A (Homo sapiens, UniProt Q13627); assay: DYRK1A Kinase TR-FRET (IMAP-Tb) Assay; assay type: biochemical; details: TR-FRET (IMAP-Tb); ATP 70 μM; 37° C. 60 minutes; read-out: Enzyme IC50 (μM) DYRK1A
T1 construct: purchased Invitrogen PV3997
Method in brief: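 Recombinant human DYRK1A phosphorylated fluorescent substrate peptide (1.0 μM) with ATP in 10 mM HEPES pH 7.0, 50 mM NaCl, 5 mM MgCl2, 1 mM DTT, 1 mM NaVO4, 0.02% BSA for 60 min at 37 °C. Phosphopeptide detected by IMAP terbium TR-FRET; IC50 reported.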

Human DYRK1B = molecular target: T2, Human DYRK1B (Homo sapiens, UniProt Q9Y463); assay: DYRK1B Kinase TR-FRET (IMAP-Tb) Assay; assay type: biochemical; details: TR-FRET (IMAP-Tb); ATP 70 μM; 37° C. 60 minutes; read-out: Enzyme IC50 (μM) DYRK1B
T2 construct: purchased Invitrogen PR8350B (former PV4649)
T2 sequence (Q9Y463 whole entry): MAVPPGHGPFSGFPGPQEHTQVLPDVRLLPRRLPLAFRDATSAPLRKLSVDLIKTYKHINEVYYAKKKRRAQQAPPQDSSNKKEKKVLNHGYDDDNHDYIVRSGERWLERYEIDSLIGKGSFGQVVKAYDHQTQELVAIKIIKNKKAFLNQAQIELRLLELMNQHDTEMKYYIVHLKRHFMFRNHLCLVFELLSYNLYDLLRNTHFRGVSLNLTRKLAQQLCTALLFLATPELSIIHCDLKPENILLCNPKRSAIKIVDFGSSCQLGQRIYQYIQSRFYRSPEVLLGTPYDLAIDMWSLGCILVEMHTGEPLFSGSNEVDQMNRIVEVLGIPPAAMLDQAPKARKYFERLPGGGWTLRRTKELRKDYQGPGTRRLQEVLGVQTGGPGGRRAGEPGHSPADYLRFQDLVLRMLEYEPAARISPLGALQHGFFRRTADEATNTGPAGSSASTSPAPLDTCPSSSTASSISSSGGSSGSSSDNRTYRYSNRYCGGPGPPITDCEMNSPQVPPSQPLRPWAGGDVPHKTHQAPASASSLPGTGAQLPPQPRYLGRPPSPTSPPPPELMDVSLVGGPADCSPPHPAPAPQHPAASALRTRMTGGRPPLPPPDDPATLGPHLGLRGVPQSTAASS

Row | Compound | EC50 ([1]; Homo sapiens, SW-620, 96 h) [µM] | IC50 (Human DYRK1A) [µM] | IC50 (Human DYRK1B) [µM] | EC50 ([1]; hydrochloride) [µM]
1 | Cc1ncc2cc(C(=O)Nc3cc(C(=O)NC(CN)c4ccccc4)ccc3Cl)c(=O)[nH]c2n1 (stereo not drawn) [Example 114, N-(5-(2-Amino-1-phenylethylcarbamoyl)-2-chlorophenyl)-2-methyl-7-oxo-7,8-dihydropyrido[2,3-d]pyrimidine-6-carboxamide hydrochloride] | 1.32 | 0.0373 | 0.0146 | –
2 | N[C@H]1CC[C@@H](Nc2ncc3cc(C(=O)Nc4cc(C(=O)NCc5cccc(Cl)c5)ccc4Cl)c(=O)[nH]c3n2)CC1 [Example 118, 2-((1s,4 s)-4-Aminocyclohexylamino)-N-(2-chloro-5-(3-chlorobenzylcarbamoyl)phenyl)-7-oxo-7,8-dihydropyrido[2,3-d]pyrimidine-6-carboxamide hydrochloride] | 0.438 | 0.0569 | 0.0767 | –
3 | O=C(NCc1cccc(Cl)c1)c1ccc(Cl)c(NC(=O)c2cc3cnc(N4CCNCC4)nc3[nH]c2=O)c1 [Example 119, N-(2-Chloro-5-(3-chlorobenzylcarbamoyl)phenyl)-7-oxo-2-(piperazin-1-yl)-7,8-dihydropyrido[2,3-d]pyrimidine-6-carboxamide hydrochloride] | 0.152 | 0.044 | 0.135 | –
4 | CN1CCN(CCCNc2ncc3cc(C(=O)Nc4cc(C(=O)NC(CN)c5ccccc5)ccc4Cl)c(=O)[nH]c3n2)CC1 (stereo not drawn) [Example 122, N-(5-(2-Amino-1-phenylethylcarbamoyl)-2-chlorophenyl)-2-(3-(4-methylpiperazin-1-yl)propylamino)-7-oxo-7,8-dihydropyrido[2,3-d]pyrimidine-6-carboxamide] | 0.359 | 0.012 | 0.009 | –
5 | CN1CCN(CCCNc2ncc3cc(C(=O)Nc4cc(C(=O)NC(CN)c5ccccc5)ccc4Cl)c(=O)[nH]c3n2)CC1 (stereo not drawn) [Example 123, N-(5-(2-Amino-1-phenylethylcarbamoyl)-2-chlorophenyl)-2-(3-(4-methylpiperazin-1-yl)propylamino)-7-oxo-7,8-dihydropyrido[2,3-d]pyrimidine-6-carboxamide hydrochloride] | – | 0.0067 | 0.0082 | 0.319
6 | CC1(C)OCC(CNc2ncc3cc(C(=O)Nc4cc(C(=O)NCc5cccc(Cl)c5)ccc4Cl)c(=O)[nH]c3n2)O1 (stereo not drawn) [Example 124, N-(2-Chloro-5-(3-chlorobenzylcarbamoyl)phenyl)-2-((2,2-dimethyl-1,3-dioxolan-4-yl)methylamino)-7-oxo-7,8-dihydropyrido[2,3-d]pyrimidine-6-carboxamide] | > 10 | 0.113 | 0.107 | –
7 | O=C(NCc1cccc(Cl)c1)c1ccc(Cl)c(NC(=O)c2cc3cnc(NC4CCNCC4)nc3[nH]c2=O)c1 [Example 125, N-(2-Chloro-5-(3-chlorobenzylcarbamoyl)phenyl)-7-oxo-2-(piperidin-4-ylamino)-7,8-dihydropyrido[2,3-d]pyrimidine-6-carboxamide hydrochloride] | 1.5 | 0.0303 | 0.206 | –
8 | O=C(NCc1cccc(Cl)c1)c1ccc(Cl)c(NC(=O)c2cc3cnc(NCC(O)CO)nc3[nH]c2=O)c1 (stereo not drawn) [Example 126, N-(2-Chloro-5-(3-chlorobenzylcarbamoyl)phenyl)-2-(2,3-dihydroxypropylamino)-7-oxo-7,8-dihydropyrido[2,3-d]pyrimidine-6-carboxamide] | > 10 | 0.0197 | 0.059 | –
9 | CC(C)(O)CNc1ncc2cc(C(=O)Nc3cc(C(=O)NCc4cccc(Cl)c4)ccc3Cl)c(=O)[nH]c2n1 [Example 127, N-(2-Chloro-5-(3-chlorobenzylcarbamoyl)phenyl)-2-(2-hydroxy-2-methylpropylamino)-7-oxo-7,8-dihydropyrido[2,3-d]pyrimidine-6-carboxamide] | 0.165 | 0.0223 | 0.086 | –
10 | COc1ncc2cc(C(=O)Nc3cc(C(=O)N[C@@H](CN)c4cccc(Cl)c4)ccc3Cl)c(=O)[nH]c2n1 [Example 134, 2-Methoxy-7-oxo-7,8-dihydro-pyrido[2,3-d]pyrimidine-6-carboxylic acid {5-[(R)-2-amino-1-(3-chloro-phenyl)-ethylcarbamoyl]-2-chloro-phenyl}-amide] | 7.57 | 0.481 | 1.98 | –
11 | COc1ncc2cc(C(=O)Nc3cc(C(=O)N[C@H](CN)c4cccc(Cl)c4)ccc3Cl)c(=O)[nH]c2n1 [Example 135, 2-Methoxy-7-oxo-7,8-dihydro-pyrido[2,3-d]pyrimidine-6-carboxylic acid {5-[(S)-2-amino-1-(3-chloro-phenyl)-ethylcarbamoyl]-2-chloro-phenyl}-amide] | 0.523 | 0.0109 | 0.0457 | –
12 | NCC(NC(=O)c1ccc(Cl)c(NC(=O)c2cc3cnc(N4CCC(N)CC4)nc3[nH]c2=O)c1)c1ccccc1 (stereo not drawn) [Example 138, N-(5-(2-Amino-1-phenylethylcarbamoyl)-2-chlorophenyl)-2-(4-aminopiperidin-1-yl)-7-oxo-7,8-dihydropyrido[2,3-d]pyrimidine-6-carboxamide hydrochloride] | 2.9 | 0.0184 | 0.0319 | –
13 | CN1CCN(CCNc2ncc3cc(C(=O)Nc4cc(C(=O)NC(CN)c5ccccc5)ccc4Cl)c(=O)[nH]c3n2)CC1 (stereo not drawn) [Example 139, N-(5-(2-Amino-1-phenylethylcarbamoyl)-2-chlorophenyl)-2-(2-(4-methylpiperazin-1-yl)ethylamino)-7-oxo-7,8-dihydropyrido[2,3-d]pyrimidine-6-carboxamide hydrochloride] | 0.396 | 0.006 | 0.019 | –
14 | CSc1ncc2cc(C(=O)Nc3cc(C(=O)NC(CO)c4ccccc4)ccc3Cl)c(=O)[nH]c2n1 (stereo not drawn) [Example 140, N-(2-Chloro-5-(2-hydroxy-1-phenylethylcarbamoyl)phenyl)-2-(methylthio)-7-oxo-7,8-dihydropyrido[2,3-d]pyrimidine-6-carboxamide] | 3.07 | 0.073 | 0.17 | –
15 | CSc1ncc2cc(C(=O)Nc3cc(C(=O)NC(CCO)c4ccccc4)ccc3Cl)c(=O)[nH]c2n1 (stereo not drawn) [Example 141, N-(2-Chloro-5-(3-hydroxy-1-phenylpropylcarbamoyl)phenyl)-2-(methylthio)-7-oxo-7,8-dihydropyrido[2,3-d]pyrimidine-6-carboxamide] | 2.39 | 0.101 | 0.12 | –
16 | NC1CCN(c2ncc3cc(C(=O)Nc4cc(C(=O)NC(CO)c5ccccc5)ccc4Cl)c(=O)[nH]c3n2)CC1 (stereo not drawn) [Example 147, 2-(4-Aminopiperidin-1-yl)-N-(2-chloro-5-(2-hydroxy-1-phenylethylcarbamoyl)phenyl)-7-oxo-7,8-dihydropyrido[2,3-d]pyrimidine-6-carboxamide hydrochloride] | 1.44 | 0.194 | 0.483 | –
17 | NC1CCN(c2ncc3cc(C(=O)Nc4cc(C(=O)NC(CCO)c5ccccc5)ccc4Cl)c(=O)[nH]c3n2)CC1 (stereo not drawn) [Example 148, 2-(4-Aminopiperidin-1-yl)-N-(2-chloro-5-(3-hydroxy-1-phenylpropylcarbamoyl)phenyl)-7-oxo-7,8-dihydropyrido[2,3-d]pyrimidine-6-carboxamide hydrochloride] | 0.069 | 0.15 | 0.321 | –
18 | NCC(NC(=O)c1ccc(Cl)c(NC(=O)c2cc3cncnc3[nH]c2=O)c1)c1ccccc1 (stereo not drawn) [Example 151, N-(5-(2-Amino-1-phenylethylcarbamoyl)-2-chlorophenyl)-7-oxo-7,8-dihydropyrido[2,3-d]pyrimidine-6-carboxamide hydrochloride] | 4.26 | 0.061 | 0.096 | –
19 | NCCC(NC(=O)c1ccc(Cl)c(NC(=O)c2cc3cncnc3[nH]c2=O)c1)c1ccccc1 (stereo not drawn) [Example 152, N-(5-(3-Amino-1-phenylpropylcarbamoyl)-2-chlorophenyl)-7-oxo-7,8-dihydropyrido[2,3-d]pyrimidine-6-carboxamide hydrochloride] | 2.68 | 0.066 | 0.033 | –
20 | COc1ncc2cc(C(=O)Nc3cc(C(=O)N[C@H](CCO)c4ccccc4)ccc3Cl)c(=O)[nH]c2n1 [Example 158, (R)—N-(2-Chloro-5-(3-hydroxy-1-phenylpropylcarbamoyl)phenyl)-2-methoxy-7-oxo-7,8-dihydropyrido[2,3-d]pyrimidine-6-carboxamide] | 1.71 | 0.037 | 0.082 | –
21 | NCCC(NC(=O)c1cc(NC(=O)c2cc3cnc(N4CCOCC4)nc3[nH]c2=O)c(Cl)cc1F)c1cccc(Cl)c1 (stereo not drawn) [Example 160, 2-Morpholin-4-yl-7-oxo-7,8-dihydro-pyrido[2,3-d]pyrimidine-6-carboxylic acid {5-[3-amino-1-(3-chloro-phenyl)-propylcarbamoyl]-2-chloro-4-fluoro-phenyl}-amide] | 0.219 | 0.0532 | 0.0932 | –
22 | O=C(NCc1cccc(F)c1)c1ccc(Cl)c(NC(=O)c2cc3cnc(N4CCOCC4)nc3[nH]c2=O)c1 [Example 161, 2-Morpholin-4-yl-7-oxo-7,8-dihydro-pyrido[2,3-d]pyrimidine-6-carboxylic acid [2-chloro-5-(3-fluoro-benzylcarbamoyl)-phenyl]-amide] | > 10 | 0.0462 | 0.0472 | –

Reference: patent US20120184542A1, “PYRIDO PYRIMIDINES” (priority 2011, published 2012)
